Test results: patent US12599672B2, “KRAS proteolysis targeting chimeras” (PAQ Therapeutics Inc., priority 2023, dated 2026)

What was measured:
Type in all cases: cell-based
KRAS G12D = molecular target: T1, KRAS G12D (Homo sapiens, UniProt P01116, G12D); experiment: KRAS G12D HiBit assay; conditions: AsPc-1-KRAS (G12D)-HiBit-KI cell, compound treatment for 24 hours, absolute DC50; class symbols
T1 construct: AsPc-1-KRAS (G12D)-HiBit-KI cell (Pharmaron); host or cells: AsPc-1-KRAS (G12D)-HiBit-KI cells (HiBiT knock-in at the endogenous KRAS locus)
T1 sequence (P01116 1-188 isoform P01116-2 G12D): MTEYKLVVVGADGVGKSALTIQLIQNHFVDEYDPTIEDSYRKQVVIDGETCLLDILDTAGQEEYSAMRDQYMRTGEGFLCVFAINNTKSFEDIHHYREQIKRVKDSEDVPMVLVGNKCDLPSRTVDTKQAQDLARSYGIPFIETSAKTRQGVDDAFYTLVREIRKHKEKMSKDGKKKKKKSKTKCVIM
Summary of the method: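 Cells were treated for 24 h with compounds in a 3-fold, 10-point dilution series from a 0.3 mM DMSO stock, then equilibrated 15 min at room temperature. KRAS G12D HiBiT levels were read by luminescence after lytic Nano-Glo HiBiT reagent with LgBiT; inhibition calculated relative to 0.1% DMSO high control.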

KRAS = molecular target: T2, KRAS (Homo sapiens, UniProt P01116); experiment: KRASamp MSD assay; conditions: KE39 (KRAS amplified) cells, treated with test compounds for 24 hr, MSD readout of KRAS degradation
T2 construct: endogenous in cells; host or cells: KE39 (KRAS amplified) cells
T2 sequence (P01116 1-188 isoform P01116-2): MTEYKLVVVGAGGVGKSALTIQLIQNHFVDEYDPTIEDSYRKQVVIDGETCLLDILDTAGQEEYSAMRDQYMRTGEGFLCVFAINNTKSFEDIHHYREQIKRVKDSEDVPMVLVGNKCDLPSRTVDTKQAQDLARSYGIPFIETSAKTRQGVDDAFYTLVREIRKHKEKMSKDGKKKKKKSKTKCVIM
Summary of the method: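 KRAS-amplified KE39 cells treated with compound for 24 hr, then lysed in RIPA buffer with protease/phosphatase inhibitors. KRAS protein measured by MSD sandwich immunoassay against a recombinant WT KRAS standard curve; DC50 derived from curve fitting of degradation.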

KRAS G12V = molecular target: T3, KRAS G12V (Homo sapiens, UniProt P01116, G12V); experiment: KRAS G12V HiBit assay; conditions: SW620-KRAS (G12V)-HiBit-KI cells, compound treatment for 24 hours
T3 construct: SW620-KRAS (G12V)-HiBit-KI cell (Pharmaron); host or cells: SW620-KRAS (G12V)-HiBit-KI cells (HiBiT knock-in at the endogenous KRAS locus)
T3 sequence (P01116 1-188 isoform P01116-2 G12V): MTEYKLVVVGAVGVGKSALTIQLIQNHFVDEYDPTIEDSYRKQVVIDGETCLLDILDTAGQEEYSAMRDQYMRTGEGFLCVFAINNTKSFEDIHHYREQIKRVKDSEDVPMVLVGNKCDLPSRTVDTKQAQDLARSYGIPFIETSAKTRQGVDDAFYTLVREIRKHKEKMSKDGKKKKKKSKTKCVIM
Summary of the method: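 HiBiT-tagged KRAS G12V cells treated 24 h with compound in a 3-fold, 10-point series (0.3 mM DMSO stock); lytic HiBiT reagent with LgBiT added after 15 min room-temperature equilibration. Degradation calculated against 0.1% DMSO high control.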

SMILES | DC50 (KRAS G12D) [nM] | DC50 (KRAS) [nM] | DC50 (KRAS G12V; class symbols) [nM] | DC50 (KRAS G12V; numeric bounds) [nM]
C#Cc1c(F)ccc2cc(O)cc(-c3ncc4c(N5CCC[C@@](C)(O)C5)nc(OC[C@@]56CCCN5[C@H](COC(=O)N5CCC(OCC#Cc7ccc8c(c7)n(C)c(=O)n8C7CCC(=O)NC7=O)CC5)CC6)nc4c3F)c12 (stereo partly drawn) [Compound 373, ((3S,7aS)-7a-(((7-(8-ethynyl-7-fluoro-3-hydroxynaphthalen-1-yl)-8-fluoro-4-((R)-3-hydroxy-3-methylpiperidin-1-yl)pyrido[4,3-d]pyrimidin-2-yl)oxy)methyl)hexahydro-1H-pyrrolizin-3-yl)methyl 4-((3-(1-(2,6-dioxopiperidin-3-yl)-3-methyl-2-oxo-2,3-dihydro-1H-benzo[d]imidazol-5-yl)prop-2-yn-1-yl)oxy)piperidine-1-carboxylate] | < 100 | 1 to 10 | < 10 | –
C#Cc1c(F)ccc2cc(O)cc(-c3ncc4c(N5CCC[C@@](C)(O)C5)nc(OC[C@@]56CCCN5[C@H](COC(=O)N5CCC(CC#Cc7cccc8c7n(C)c(=O)n8C7CCC(=O)NC7=O)CC5)CC6)nc4c3F)c12 (stereo partly drawn) [Compound 374, ((3S,7aS)-7a-(((7-(8-ethynyl-7-fluoro-3-hydroxynaphthalen-1-yl)-8-fluoro-4-((R)-3-hydroxy-3-methylpiperidin-1-yl)pyrido[4,3-d]pyrimidin-2-yl)oxy)methyl)hexahydro-1H-pyrrolizin-3-yl)methyl 4-(3-(1-(2,6-dioxopiperidin-3-yl)-3-methyl-2-oxo-2,3-dihydro-1H-benzo[d]imidazol-4-yl)prop-2-yn-1-yl)piperidine-1-carboxylate] | 100 to 300 | 1 to 10 | 10 to 100 | –
C#Cc1c(F)ccc2cc(O)cc(-c3ncc4c(N5CCC[C@@](C)(O)C5)nc(OC[C@@]56CCCN5[C@H](COC(=O)N5CCC(CC#Cc7ccc8c(c7)n(C)c(=O)n8C7CCC(=O)NC7=O)CC5)CC6)nc4c3F)c12 (stereo partly drawn) [Compound 375, ((3S,7aS)-7a-(((7-(8-ethynyl-7-fluoro-3-hydroxynaphthalen-1-yl)-8-fluoro-4-((R)-3-hydroxy-3-methylpiperidin-1-yl)pyrido[4,3-d]pyrimidin-2-yl)oxy)methyl)hexahydro-1H-pyrrolizin-3-yl)methyl 4-(3-(1-(2,6-dioxopiperidin-3-yl)-3-methyl-2-oxo-2,3-dihydro-1H-benzo[d]imidazol-5-yl)prop-2-yn-1-yl)piperidine-1-carboxylate] | < 100 | 1 to 10 | < 10 | –
CCc1c(F)ccc2cc(O)cc(-c3cc4nc(OC[C@@]56CCCN5[C@H](COC(=O)N5CCC(CN7CCC(c8ccc9c(c8)n(C)c(=O)n9C8CCC(=O)NC8=O)CC7)CC5)CC6)nc(N5CCC[C@@](C)(O)C5)c4cn3)c12 (stereo partly drawn) [Compound 377, ((3S,7aS)-7a-(((7-(8-ethyl-7-fluoro-3-hydroxynaphthalen-1-yl)-4-((R)-3-hydroxy-3-methylpiperidin-1-yl)pyrido[4,3-d]pyrimidin-2-yl)oxy)methyl)hexahydro-1H-pyrrolizin-3-yl)methyl 4-((4-(1-(2,6-dioxopiperidin-3-yl)-3-methyl-2-oxo-2,3-dihydro-1H-benzo[d]imidazol-5-yl)piperidin-1-yl)methyl)piperidine-1-carboxylate] | < 100 | < 1 | < 10 | –
CCc1cccc2cc(O)cc(-c3cc4nc(OC[C@@]56CCCN5[C@H](COC(=O)N5CCC(CN7CCC(c8ccc9c(c8)n(C)c(=O)n9C8CCC(=O)NC8=O)CC7)CC5)CC6)nc(N5CCC[C@@](C)(O)C5)c4cn3)c12 (stereo partly drawn) [Compound 378, ((3S,7aS)-7a-(((7-(8-ethyl-3-hydroxynaphthalen-1-yl)-4-((R)-3-hydroxy-3-methylpiperidin-1-yl)pyrido[4,3-d]pyrimidin-2-yl)oxy)methyl)hexahydro-1H-pyrrolizin-3-yl)methyl 4-((4-(1-(2,6-dioxopiperidin-3-yl)-3-methyl-2-oxo-2,3-dihydro-1H-benzo[d]imidazol-5-yl)piperidin-1-yl)methyl)piperidine-1-carboxylate] | < 100 | < 1 | < 10 | –
CCc1c(F)ccc2cc(O)cc(-c3ncc4c(N5CCCCC5)nc(OC[C@@]56CCCN5[C@H](CN5CCC(CN7CCC(c8ccc9c(c8)n(C)c(=O)n9C8CCC(=O)NC8=O)CC7)CC5)CC6)nc4c3F)c12 (stereo partly drawn) [Compound 379, 3-(5-(1-((1-(((3S,7aS)-7a-(((7-(8-ethyl-7-fluoro-3-hydroxynaphthalen-1-yl)-8-fluoro-4-(piperidin-1-yl)pyrido[4,3-d]pyrimidin-2-yl)oxy)methyl)hexahydro-1H-pyrrolizin-3-yl)methyl)piperidin-4-yl)methyl)piperidin-4-yl)-3-methyl-2-oxo-2,3-dihydro-1H-benzo[d]imidazol-1-yl)piperidine-2,6-dione] | < 100 | < 1 | < 10 | –
CCc1c(F)ccc2cc(O)cc(-c3ncc4c(N5CCC[C@@](C)(O)C5)nc(OC[C@@]56CCCN5C(CN5CCC(Cc7ccc8c(c7)n(C)c(=O)n8C7CCC(=O)NC7=O)CC5)CC6)nc4c3F)c12 (stereo partly drawn) [Compound 383, 3-(5-((1-(((7aS)-7a-(((7-(8-ethyl-7-fluoro-3-hydroxynaphthalen-1-yl)-8-fluoro-4-((R)-3-hydroxy-3-methylpiperidin-1-yl)pyrido[4,3-d]pyrimidin-2-yl)oxy)methyl)hexahydro-1H-pyrrolizin-3-yl)methyl)piperidin-4-yl)methyl)-3-methyl-2-oxo-2,3-dihydro-1H-benzo[d]imidazol-1-yl)piperidine-2,6-dione] | < 100 | ≥ 10 | – | > 91.5
CCc1c(F)ccc2cc(O)cc(-c3ncc4c(N5CCC[C@@](C)(O)C5)nc(OC[C@@]56CCCN5C(CN5CCC(OCCCc7ccc8c(c7)n(C)c(=O)n8C7CCC(=O)NC7=O)CC5)CC6)nc4c3F)c12 (stereo partly drawn) [Compound 384, 3-(5-(3-((1-(((35,7aS)-7a-(((7-(8-Ethyl-7-fluoro-3-hydroxynaphthalen-1-yl)-8-fluoro-4-((R)-3-hydroxy-3-methylpiperidin-1-yl)pyrido[4,3-d]pyrimidin-2-yl)oxy)methyl)hexahydro-1H-pyrrolizin-3-yl)methyl)piperidin-4-yl)oxy)propyl)-3-methyl-2-oxo-2,3-dihydro-1H-benzo[d]imidazol-1-yl) piperidine-2,6-dione] | < 100 | 1 to 10 | 10 to 100 | –
C#Cc1c(F)ccc2cc(O)cc(-c3ncc4c(N5CCC[C@@](C)(O)C5)nc(OC[C@@]56CCCN5[C@H](COC(=O)N5CCC7(CC5)CC(N5CCC(c8cccc9c8n(C)c(=O)n9C8CCC(=O)NC8=O)CC5)C7)CC6)nc4c3F)c12 (stereo partly drawn) [Compound 387, ((3S,7aS)-7a-(((7-(8-ethynyl-7-fluoro-3-hydroxynaphthalen-1-yl)-8-fluoro-4-((R)-3-hydroxy-3-methylpiperidin-1-yl)pyrido[4,3-d]pyrimidin-2-yl)oxy)methyl)hexahydro-1H-pyrrolizin-3-yl)methyl 2-(4-(1-(2,6-dioxopiperidin-3-yl)-3-methyl-2-oxo-2,3-dihydro-1H-benzo[d]imidazol-4-yl)piperidin-1-yl)-7-azaspiro[3.5]nonane-7-carboxylate] | < 100 | ≥ 10 | < 10 | –
CCc1c(F)ccc2cc(O)cc(-c3ncc4c(N5CCC[C@@](C)(O)C5)nc(OC[C@@]56CCCN5[C@@H](COC(=O)N5CCC(CN7CCC(c8ccc9c(c8)n(C)c(=O)n9C8CCC(=O)NC8=O)CC7)CC5)CC6)nc4c3F)c12 (stereo partly drawn) [Compound 389, ((3R,7aS)-7a-(((7-(8-ethyl-7-fluoro-3-hydroxynaphthalen-1-yl)-8-fluoro-4-((R)-3-hydroxy-3-methylpiperidin-1-yl)pyrido[4,3-d]pyrimidin-2-yl)oxy)methyl)hexahydro-1H-pyrrolizin-3-yl)methyl 4-((4-(1-(2,6-dioxopiperidin-3-yl)-3-methyl-2-oxo-2,3-dihydro-1H-benzo[d]imidazol-5-yl)piperidin-1-yl)methyl)piperidine-1-carboxylate] | < 100 | 1 to 10 | – | > 70.5
CCc1c(F)ccc2cc(O)cc(-c3ncc4c(N5CCC[C@@](C)(O)C5)nc(OC[C@]56CCCN5[C@H](COC(=O)N5CCC(CN7CCC(c8ccc9c(c8)n(C)c(=O)n9C8CCC(=O)NC8=O)CC7)CC5)CC6)nc4c3F)c12 (stereo partly drawn) [Compound 390, ((3S,7aR)-7a-(((7-(8-ethyl-7-fluoro-3-hydroxynaphthalen-1-yl)-8-fluoro-4-((R)-3-hydroxy-3-methylpiperidin-1-yl)pyrido[4,3-d]pyrimidin-2-yl)oxy)methyl)hexahydro-1H-pyrrolizin-3-yl)methyl 4-((4-(1-(2,6-dioxopiperidin-3-yl)-3-methyl-2-oxo-2,3-dihydro-1H-benzo[d]imidazol-5-yl)piperidin-1-yl)methyl)piperidine-1-carboxylate] | < 100 | 1 to 10 | < 10 | –
